From patent publication US10626094B2 (La Jolla Institute of Allergy & Immunology, priority 2014, dated 2020)
Read-outs that look alike come from different tables or passages of the source.

What was measured:
[1] = target: LMPTP-A (Low Molecular Weight Protein Tyrosine Phosphatase-A) enzyme (Homo sapiens (Human), UniProt P24666); assay: LMPTP primary screening / LMPTP (OMFP) enzyme inhibition assay, fluorescence intensity; type: biochemical
In short: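 Single-concentration screen, test compounds 20 μM final, […]. Enzyme (0.625 nM) and OMFP (400 μM) react 50 min at room temp, dark, in Bis-Tris buffer pH 6.0 containing DTT 1 mM and Triton X-100 0.01%. Read-out: fluorescence intensity.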

[2] = aqueous solubility (buffer pH 5.0-7.4, PBS); type: physicochemical
[3] = plasma stability, human plasma; type: in vitro ADME; settings: Human plasma, 3 hrs
Excerpt: (§1) Plasma stability is a measure of the stability of small molecules and peptides in plasma and is an important parameter, which can strongly influence the in vivo efficacy of a test compound. Drug candidates are exposed to enzymatic processes (proteinases. esterases) in plasma, and they can undergo intramolecular rearrangement or bind irreversibly (covalently) to proteins.

[4] = plasma stability, mouse plasma; type: in vitro ADME; settings: Mouse plasma, 3 hrs
Excerpt: as §1

[5] = hepatic microsomal stability, human liver microsomes; type: in vitro ADME; settings: Human microsomes, 1 hr
Excerpt: (§2) In the course of this investigation many compounds with similar potencies in the LMPTP (OMFP) assay were found. In order to determine which compound would be the best candidate for in vivo studies, an abbreviated ADME panel was ran on these compounds, a tabulation of the most interesting data on this set of compounds is illustrated in Table 3 below. From the hepatic microsome stability data the candidate selected for in vivo studies was Compound D1.
(§3) The microsomal stability assay is commonly used to rank compounds according to their metabolic stability. This assay addresses the pharmacologic question of how long the parent compound will remain circulating in plasma within the body.

[6] = hepatic microsomal stability, mouse liver microsomes; type: in vitro ADME; settings: Mouse microsomes, 1 hr
Excerpt: as §2, §3

[7] = system: insulin receptor in HepG2 cells; settings: 10 microM compound overnight, insulin 5 min
[8] = target: recombinant human LMPTP-A (Homo sapiens (Human), UniProt P24666); assay: isothermal calorimetry (ITC) binding
Chain of recombinant human LMPTP-A (P24666 whole entry): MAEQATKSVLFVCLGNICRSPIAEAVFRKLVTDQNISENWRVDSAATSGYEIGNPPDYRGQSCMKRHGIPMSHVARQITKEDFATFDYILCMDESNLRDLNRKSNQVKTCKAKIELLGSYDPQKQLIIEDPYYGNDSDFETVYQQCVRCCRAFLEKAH
Method: ML400 analog G53 (Table A) binds to LMPTP. ITC was performed using recombinant human LMPTP-A and a derivative of Compound D1, G53. Kd=0.9 microM.

Chain of LMPTP-A (Low Molecular Weight Protein Tyrosine Phosphatase-A) enzyme (P24666 whole entry): as above

| SMILES | IC50 ([1]; Table 2 quinoline series, CP sample (cherry pick of DMSO solution from NIH MLSMR), read-out: LMPTP (OMFP) (IC50)) [µM] | IC50 ([1]; Table 2 quinoline series, P sample (purchased from commercial sources), read-out: LMPTP (OMFP) (IC50)) [µM] | IC50 ([1]; Table 2 quinoline series, S sample (synthesized de novo), read-out: LMPTP (OMFP) (IC50)) [µM] | IC50 ([1]; initial screening hits (Scheme 4), read-out: IC50) [µM] | IC50 ([1]; purchased compound, read-out: LMPTP (OMFP) IC50) [µM] | IC50 ([1]; synthesized compound, read-out: LMPTP (OMFP) IC50) [µM] | Aqueous Solubility Pion's buffer ([2]; pH 5.0) [µg/mL] | Aqueous Solubility Pion's buffer ([2]; pH 6.2) [µg/mL] | Aqueous Solubility Pion's buffer ([2]; pH 7.4) [µg/mL] | Plasma Stability % Remaining @ 3 hrs [3] [%] | Plasma Stability % Remaining @ 3 hrs [4] [%] | Hepatic Microsome Stability % Remaining @ 1 hr [5] [%] | Hepatic Microsome Stability % Remaining @ 1 hr [6] [%] | phosphorylation of the insulin receptor [7] | IC50 ([1]; LMPTP-A, OMFP substrate, method of Example 2, read-out: IC50) [µM] | Kd [8] [µM] |
| --- | --- | --- | --- | --- | --- | --- | --- | --- | --- | --- | --- | --- | --- | --- | --- | --- |
| c1ccc(-c2cc(NCCN3CCCCC3)c3ccccc3n2)cc1 [Entry 41] | 3.49 | 2.86 | 3.7 | 3.49 | 2.86 | 3.7 | 111.8 | 95.7 | 54.5 | 70.08 | 62.25 | 26.54 | 0.38 | increases phosphorylation of the insulin receptor | – | – |
| COc1ccc(-c2cc(Nc3cccc(CC4CCNCC4)c3)c3ccccc3n2)cc1 [Compound G53, [2-(4-methoxyphenyl)(4-quinolyl)][3-(4-piperidylmethyl)phenyl]amine] | – | – | – | – | – | – | – | – | – | – | – | – | – | – | 0.801 to 5 | 0.9 |
